Results taken from ChEMBL document CHEMBL6182924, “Discovery of a Novel and Potent MET Transcription Inhibitor Targeting Promoter G-Quadruplex for the Treatment of NSCLC” (J Med Chem, 2025).
Calls of active or inactive are those of the source. The calls are words filed in the database; no cut-off is given here.

Tests used:
A549 [1] = assay: Induction of cell cycle arrest in human A549 cells assessed as accumulation of cells at G2 phase at 0.5 uM measured for 24 hrs by PI/Rnase staining based flow cytometry (reference value: 13.4 %); type: functional
A549 [2] = assay: Downregulation of c-Met expression in human A549 cells incubated for 72 hrs by Western blot analysis; type: functional, cell-based; details: dose <= 1000.0 nM
A549 [3] = assay: Induction of cell cycle arrest in human A549 cells assessed as accumulation of cells at G1 phase at 1 uM measured for 24 hrs by PI/Rnase staining based flow cytometry (reference value: 75.2 %); type: functional
A549 [4] = assay: Induction of cell cycle arrest in human A549 cells assessed as accumulation of cells at G2 phase at 2 uM measured for 24 hrs by PI/Rnase staining based flow cytometry (reference value: 13.4 %); type: functional
NCI-H1975 [5] = assay: Induction of cell cycle arrest in human NCI-H1975 cells assessed as accumulation of cells at G2 phase at 1 uM measured for 24 hrs by PI/Rnase staining based flow cytometry (reference value: 14.8 %); type: functional
NCI-H1975 [6] = assay: Induction of cell cycle arrest in human NCI-H1975 cells assessed as accumulation of cells at G1 phase at 2 uM measured for 24 hrs by PI/Rnase staining based flow cytometry (reference value: 79.2 %); type: functional
NCI-H1975 [7] = assay: Induction of cell cycle arrest in human NCI-H1975 cells assessed as accumulation of cells at G2 phase at 2 uM measured for 24 hrs by PI/Rnase staining based flow cytometry (reference value: 14.8 %); type: functional
A549 [8] = assay: Induction of apoptosis in human A549 cells assessed as viable cells at 0.5 uM incubated for 24 hrs by Annexin V-FITC/PI staining based flow cytometry analysis (reference value: 91.3%); type: functional; details: read-out: Activity
A549 [9] = assay: Induction of apoptosis in human A549 cells assessed as early apoptotic cells at 0.5 uM incubated for 24 hrs by Annexin V-FITC/PI staining based flow cytometry analysis (reference value: 1.73 %); type: functional
A549 [10] = assay: Induction of apoptosis in human A549 cells assessed as late apoptotic cells at 0.5 uM incubated for 24 hrs by Annexin V-FITC/PI staining based flow cytometry analysis (reference value: 2.56 %); type: functional
A549 [11] = assay: Induction of apoptosis in human A549 cells assessed as necrotic cells at 0.5 uM incubated for 24 hrs by Annexin V-FITC/PI staining based flow cytometry analysis (reference value: 4.37 %); type: functional
A549 [12] = assay: Induction of apoptosis in human A549 cells assessed as viable cells at 1 uM incubated for 24 hrs by Annexin V-FITC/PI staining based flow cytometry analysis (reference value: 91.3%); type: functional; details: read-out: Activity
A549 [13] = assay: Induction of apoptosis in human A549 cells assessed as late apoptotic cells at 1 uM incubated for 24 hrs by Annexin V-FITC/PI staining based flow cytometry analysis (reference value: 2.56 %); type: functional
A549 [14] = assay: Induction of apoptosis in human A549 cells assessed as necrotic cells at 1 uM incubated for 24 hrs by Annexin V-FITC/PI staining based flow cytometry analysis (reference value: 4.37 %); type: functional
A549 [15] = assay: Induction of apoptosis in human A549 cells assessed as necrotic cells at 2 uM incubated for 24 hrs by Annexin V-FITC/PI staining based flow cytometry analysis (reference value: 4.37 %); type: functional
NCI-H1975 [16] = assay: Induction of apoptosis in human NCI-H1975 cells assessed as viable cells at 0.5 uM incubated for 24 hrs by Annexin V-FITC/PI staining based flow cytometry analysis (reference value: 90.1 %); type: functional; details: read-out: Activity
NCI-H1975 [17] = assay: Induction of apoptosis in human NCI-H1975 cells assessed as necrotic cells at 0.5 uM incubated for 24 hrs by Annexin V-FITC/PI staining based flow cytometry analysis (reference value: 7.33 %); type: functional
NCI-H1975 [18] = assay: Induction of apoptosis in human NCI-H1975 cells assessed as early apoptotic cells at 1 uM incubated for 24 hrs by Annexin V-FITC/PI staining based flow cytometry analysis (reference value: 0.35 %); type: functional
NCI-H1975 [19] = assay: Antiproliferative activity against human NCI-H1975 cells assessed as inhibition of cell growth incubated for 3 days by CCK-8 assay; type: functional, cell-based; details: time 3.0 day
A549 [20] = assay: Inhibition of colony formation in human A549 cells incubated for 2 weeks by crystal violet staining based analysis; type: functional, cell-based; details: dose 0.5-2 µM
NCI-H1975 [21] = assay: Inhibition of colony formation in human NCI-H1975 cells incubated for 2 weeks by crystal violet staining based analysis; type: functional, cell-based; details: dose 0.5-2 µM
A549 [22] = assay: Inhibition of cell migration in human A549 cells incubated for 12 hrs by crystal violet staining based analysis; type: functional; details: dose 0.5-2 µM
A549 [23] = assay: Inhibition of cell invasion in human A549 cells incubated for 12 hrs; type: functional, cell-based; details: dose 0.5-2 µM
NCI-H1975 [24] = assay: Inhibition of cell invasion in human NCI-H1975 cells incubated for 12 hrs; type: functional, cell-based; details: dose 0.5-2 µM
NCI-H1975 [25] = assay: Antiproliferative activity against MET knockdown human NCI-H1975 cells assessed as inhibition of cell growth by CCK-8 assay; type: functional, cell-based
A549 [26] = assay: Antitumor activity against human A549 cells xenografted in BALB/c mouse assessed as downregulation of AKT expression in tumor at 20 mg/kg, po administered once a day and measured for 20 days by Western blot analysis; type: functional, organism-based; details: time 20.0 day
[27] = Toxicity in BALB/c mouse xenografted with human A549 cells assessed as body weight loss at 20 mg/kg, po administered once a day and measured after 20 days; type: organism-based; details: in vivo, 480 h, time 20 day
[28] = Toxicity in BALB/c mouse xenografted with human A549 cells assessed as heart damage at 20 mg/kg, po administered once a day and measured after 20 days by H and E staining based analysis; type: organism-based; details: in vivo, 480 h, time 20 day
[29] = Toxicity in BALB/c mouse xenografted with human A549 cells assessed as liver damage at 20 mg/kg, po administered once a day and measured after 20 days by H and E staining based analysis; type: organism-based; details: in vivo, 480 h, time 20 day
[30] = Toxicity in BALB/c mouse xenografted with human A549 cells assessed as lung damage at 20 mg/kg, po administered once a day and measured after 20 days by H and E staining based analysis; type: organism-based; details: in vivo, 480 h, time 20 day
[31] = Toxicity in BALB/c mouse xenografted with human A549 cells assessed as lung damage at 40 mg/kg, po administered once a day and measured after 20 days by H and E staining based analysis; type: organism-based; details: in vivo, 480 h, time 20 day
[32] = Toxicity in BALB/c mouse xenografted with human A549 cells assessed as kidney damage at 40 mg/kg, po administered once a day and measured after 20 days by H and E staining based analysis; type: organism-based; details: in vivo, 480 h, time 20 day
[33] = Acute toxicity in Sprague-Dawley rat assessed as spleen damage at 500 to 2000 mg/kg, po measured every 2 days by H and E staining based analysis; type: organism-based; details: in vivo, 48 h, dose 500-2000 mg/kg, time 2 day
BaF3 [34] = assay: Antiproliferative activity against mouse BaF3 cells harboring TPR-MET L1195V mutant incubated for 24 hrs by CCK-8 assay; type: functional, cell-based; details: BaF3, 24 h
BaF3 [35] = assay: Antiproliferative activity against mouse BaF3 cells harboring TPR-MET D1228N mutant incubated for 24 hrs by CCK-8 assay; type: functional, cell-based; details: BaF3, 24 h
Quadruplex DNA = assay: Binding affinity to c-MET G4-quadruplex DNA (unknown origin) assessed as change in melting temperature

## COc1cccc(-c2ccc(-c3nc4c5cccnc5c5ncccc5c4[nH]3)o2)c1
A549 [1]
  Activity: 14.6%
A549 [2]
  Activity: Dose-dependent-effect
A549 [3]
  Activity: 77.2%
A549 [4]
  Activity: 9.06%
NCI-H1975 [5]
  Activity: 11.5%
NCI-H1975 [6]
  Activity: 84.2%
NCI-H1975 [7]
  Activity: 11%
A549 [8]
  viability at 0.5 µM: 83.2%
A549 [9]
  Activity: 5.09%
A549 [10]
  Activity: 7.9%
A549 [11]
  Activity: 3.79%
A549 [12]
  viability at 1 µM: 74%
A549 [13]
  Activity: 10.8%
A549 [14]
  Activity: 8.81%
A549 [15]
  Activity: 6.99%
NCI-H1975 [16]
  viability at 0.5 µM: 85.1%
NCI-H1975 [17]
  Activity: 4.81%
NCI-H1975 [18]
  Activity: 2.2%
NCI-H1975 [19]
  Activity: Active
A549 [20]
  inhibition: Dose-dependent-effect
NCI-H1975 [21]
  inhibition: Dose-dependent-effect
A549 [22]
  inhibition: Dose-dependent-effect
A549 [23]
  inhibition: Dose-dependent-effect
NCI-H1975 [24]
  inhibition: Dose-dependent-effect
NCI-H1975 [25]
  Activity: Active
A549 [26]
  Activity: Active
[27]
  Activity: Non-toxic
[28]
  Activity: Non-toxic
[29]
  Activity: Non-toxic
[30]
  Activity: Non-toxic
[31]
  Activity: Non-toxic
[32]
  Activity: Non-toxic
[33]
  Activity: Non-toxic
BaF3 [34]
  IC50: 510 nM
BaF3 [35]
  IC50: 400 nM
Quadruplex DNA
  ΔTm: 10.8 °C
